# Patent US20090061461A1, “Phosphorylated or Non-Phosphorylated MPR as Diagnostic Marker or Therapeutic Target” (priority 2005, published 2009)
# Key:
# [1] = test system: breast cancer exhibiting a positive ER status; conditions: patients with breast cancer of positive ER status; cited from earlier work
# [2] = test system: MCF-7 breast cancer cells; assay: Stable transfection of MCF-7 cells, colony formation / cell count after 2 weeks of selection; type: cell-based, human; conditions: MCF-7 cells transfected with pcDNA3.1 HA-tagged mPR plasmid, 2 weeks hygromycin B selection
# Method: Colonies were grown from all transfected cell lines. […] This anti-proliferative effect of both of these mutants was not observed using transiently transfected cells used for immunohistochemistry in cytospins because these were assayed shortly after transfection.
# Therefore, treatments that would promote the formation of the hypophosphorylated dimeric form in tumors would be highly desirable. […] Therefore the interaction of an SH3-domain-containing protein that interacts with the SH3-domain target sequence that contains serine 56 is necessary to manifest the antiproliferative phenotype associated with non-phosphorylated serine 180. The interaction of this unknown protein is inhibited by phosphorylation of serine 56, thereby preventing the antiproliferative phenotype and enhancing proliferative ability. Conversely, when an SH2-domain-containing protein can bind to the phosphorylated tyrosine 179 adjacent to non-phosphorylated serine 180 then the antiproliferative effect is antagonized, and cells can proliferate. […]
# MCF-7 cells stably transfected with mPR and mutants, respectively, were established. […] To that aim colonies were trypsinized, counted and diluted in two-fold dilutions.
# DCC = target: T1, DCC (Homo sapiens, UniProt P43146); assay: Immune precipitation of DCC with HA-tagged mPR, Western blot with anti-DCC AF5; type: binding; conditions: MCF7 cells, 24 hours after transfection, anti-HA immunoprecipitation
# T1 construct: endogenous in cells; host or cells: MCF7 human breast cancer cells, transfected only with mPR-3HA expression plasmids
# Method: Therefore it is most reasonable to assume that mPR will be detectable in a complex with DCC. […] Aliquots of 2×10^6 MCF7 cells were transfected as described below with each of the mPR expression vectors.
# After 24 hours the mPR-3HA proteins were affinity purified with an anti-HA anti-body described above. The AF5 anti DCC human monoclonal antibody (Merck Biosciences OP45 Anti-DCC Mouse mAb AF5) was used to detect the presence of DCC by Western Blot. Normalized amounts of the precleared incubation reaction, the final supernatant after removal of the immuno-precipitate, and of the immuno-precipitated pellet were loaded to SDS-PAGE gels, blotted to membranes, and Western Blotted with the AF5 anti-DCC antibody. […] The size of the band was slightly higher than the predicted 158 kDa for DCC, possibly due to post-translational modification of the protein. An approximately 100 kDa band also reacted with the anti-DCC monoclonal antibody in Western Blot, which may represent a proteolytic fragment of DCC. […] We are not naively claiming a phosphorylated form of mPR interacts with DCC, which is not shown by our data. […]
# MCF-7 breast cancer cells were transfected by Lipofection with 5 μg of pcDNA3.1 containing HA-tagged mPR-wt, tagged mutant S56A, S180A, S56A/S180A, or tagged mutant S56A/C128S/[…]. […] For IP the cells were trypsinized, counted and cell pellets were snap frozen and stored at −80° C. […]
# T1 sequence (P43146 26-1447): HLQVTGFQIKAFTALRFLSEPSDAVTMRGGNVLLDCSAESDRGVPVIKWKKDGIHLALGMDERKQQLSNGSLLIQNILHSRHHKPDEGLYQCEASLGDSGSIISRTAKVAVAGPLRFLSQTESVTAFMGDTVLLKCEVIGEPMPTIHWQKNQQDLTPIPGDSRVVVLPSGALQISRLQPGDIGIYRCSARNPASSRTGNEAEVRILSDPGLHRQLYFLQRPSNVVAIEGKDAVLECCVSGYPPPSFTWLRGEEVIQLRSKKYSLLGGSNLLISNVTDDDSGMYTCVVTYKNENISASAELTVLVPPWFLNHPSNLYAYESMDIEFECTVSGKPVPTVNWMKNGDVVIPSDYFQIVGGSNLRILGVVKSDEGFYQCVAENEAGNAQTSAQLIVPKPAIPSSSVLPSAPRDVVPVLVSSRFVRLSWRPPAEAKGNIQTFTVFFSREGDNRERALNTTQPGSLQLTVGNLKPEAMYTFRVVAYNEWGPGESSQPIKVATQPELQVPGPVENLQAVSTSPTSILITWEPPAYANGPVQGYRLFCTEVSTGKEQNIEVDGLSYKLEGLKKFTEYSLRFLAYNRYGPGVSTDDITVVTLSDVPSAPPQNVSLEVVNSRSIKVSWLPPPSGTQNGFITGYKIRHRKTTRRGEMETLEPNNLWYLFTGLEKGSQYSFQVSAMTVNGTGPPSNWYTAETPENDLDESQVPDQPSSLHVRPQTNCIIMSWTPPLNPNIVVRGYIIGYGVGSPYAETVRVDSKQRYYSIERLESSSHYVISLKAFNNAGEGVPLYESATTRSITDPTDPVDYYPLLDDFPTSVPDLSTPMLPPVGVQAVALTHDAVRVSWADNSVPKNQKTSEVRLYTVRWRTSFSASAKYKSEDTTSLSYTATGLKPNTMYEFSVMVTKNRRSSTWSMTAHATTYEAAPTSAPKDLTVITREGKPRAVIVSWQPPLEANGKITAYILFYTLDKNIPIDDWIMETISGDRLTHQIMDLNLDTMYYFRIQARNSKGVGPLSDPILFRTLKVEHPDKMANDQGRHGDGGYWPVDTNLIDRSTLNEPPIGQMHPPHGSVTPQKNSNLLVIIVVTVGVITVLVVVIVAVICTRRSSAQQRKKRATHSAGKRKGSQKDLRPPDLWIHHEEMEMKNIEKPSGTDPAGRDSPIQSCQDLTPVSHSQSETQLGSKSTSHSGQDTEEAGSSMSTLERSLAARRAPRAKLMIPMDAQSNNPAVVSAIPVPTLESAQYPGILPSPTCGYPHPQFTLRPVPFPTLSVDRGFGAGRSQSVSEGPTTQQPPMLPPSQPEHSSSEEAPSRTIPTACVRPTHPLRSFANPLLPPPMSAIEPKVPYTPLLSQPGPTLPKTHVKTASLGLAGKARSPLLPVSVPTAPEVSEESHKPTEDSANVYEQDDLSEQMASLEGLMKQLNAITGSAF
Compound,number of colonies / ability to proliferate [2],further results
CC/C(=C(\c1ccccc1)c1ccc(OCCN(C)C)cc1)c1ccccc1 [tamoxifen],,fraction of cases in which effective [1]: approximately 50%
"S56A/C128S/S180A: HA-tagged mPR triple mutant: serine 56 and 180 to alanine, cysteine 128 to serine",able to proliferate,
"S56A/S180A: HA-tagged mPR (PGRMC1) with serine 56 and serine 180 mutated to alanine, expressed from plasmid pcDNA3.1",drastically reduced to effectively background levels,
wild-type mPR: HA-tagged wild-type membrane associated progesterone receptor component 1 expressed from pcDNA3_MPR-3HA,,DCC band in immune precipitation pellet (DCC): A high molecular weight DCC band was observed
